Assay results reported in US6908899B2, “Pro-inflammatory fibrinopeptide” (U.S. Dept. of Veterans Affairs, priority 2001, dated 2005).

Legend:
RA synovial cell lines = test: Flow cytometry analysis of ICAM-1 expression; format: cell-based, human
[1] = tested on: human foreskin fibroblasts; test: Flow cytometry analysis of ICAM-1 expression; format: cell-based; conditions: GPRP 1 mg/ml
RA synovial fibroblasts [2] = test: ICAM-1 cell-ELISA (O.D. 492); format: cell-based, human; conditions: for ICAM-1 O.D. 492 / ICAM-1 expression O.D. 492: overnight; for ICAM-1 O.D. 492: IL-1 0.5 ng/ml, GPRP or GPRP-amide 1 mg/ml, fibrinogen receptor peptide 0.1 mg/ml, FPA, FPB 10^−4 M; for ICAM-1 expression O.D. 492: fibrin clots 0.6 mg/ml or GPRP 1 mg/ml, mean ± SD, triplicate
foreskin fibroblasts [3] = test: ICAM-1 cell-ELISA (O.D. 492); format: cell-based, human
[4] = tested on: synovial cells from patients with osteoarthritis (OA); test: ICAM-1 ELISA (O.D. 492); format: cell-based, human; conditions: OA line; overnight; IL-1 0.5 ng/ml, GPRP or GPRP-amide 1 mg/ml, fibrinogen receptor peptide 0.1 mg/ml, FPA, FPB 10^−4 M
RA synovial fibroblasts [5] = test: IL-6 ELISA on cell supernatants; format: cell-based, human; conditions: overnight with GPRP
foreskin fibroblasts [6] = test: IL-6 ELISA on cell supernatants; format: cell-based, human; conditions: overnight with GPRP
[7] = tested on: RA derived synovial cells; test: In vitro T cell adhesion assay; format: cell-based, human; conditions: ± SD, triplicate wells
[8] = tested on: OA derived synovial cells; test: In vitro T cell adhesion assay; format: cell-based, human; conditions: OA line 15, ± SD, triplicate wells
[9] = tested on: foreskin fibroblast cells; test: In vitro T cell adhesion assay; format: cell-based, human; conditions: Foreskin line, ± SD, triplicate wells
RA synovial fibroblasts [10] = test: IL-8 ELISA on cell culture supernatants; format: cell-based, human; conditions: for IL-8: 1 mg/ml GPRP
Procedure: (§1) I used commercial ELISA kits to assay cell culture supernatants of RA fibroblasts that were cultured for both 24 and 48 hours with or without peptide.

foreskin fibroblasts [11] = test: IL-8 ELISA on cell culture supernatants; format: cell-based, human; conditions: 1 mg/ml GPRP
RA synovial fibroblasts [12] = test: GRO-alpha ELISA on cell culture supernatants; format: cell-based, human
Procedure: as §1

foreskin fibroblasts [13] = test: GRO-alpha ELISA on cell culture supernatants; format: cell-based, human; conditions: for Increase in GRO-alpha secretion: foreskin FB
Synovial cells [14] = test: SAC competition assay by flow cytometry; format: binding, human
From the text: Thus, labeled peptide could facilitate the isolation, identification and characterization of its receptor, through standard immunological techniques such as immunohistochemistry, flow cytometry and immunoprecipitation.

fibrin polymerization = test: Inhibition of fibrin polymerization; format: biochemical; conditions: applicant's studies of fibrin co-culture (Reference 19)
From the text: Synthetic peptides modeled after these “knobs” are able to inhibit fibrin polymerization by covering up the “holes” on the gamma chains and are commercially available.
For example, changing Gly1 to anything else destroys its inhibitory action as there appears to be no extra “room” for a side chain in the gamma chain “hole” into which it must fit. However, as noted below, amino acid Pro4 functions differently.

[15] = tested on: synovial fibroblast lines; test: V-CAM-1 expression on synovial lines; format: cell-based, human; conditions: in response to the peptide
synovial cells [16] = test: RT-PCR of IL-6 gene expression; format: cell-based; conditions: versus controls
[17] = tested on: human lung fibroblastic cells; test: Response of lung fibroblastic cells to the fibrinopeptide; format: cell-based
From the text: The peptide of the invention is believed to play a role in inflammatory lung diseases in which fibrin deposition is also known to occur. My research has proven that human lung fibroblastic cells are also responsive to the fibrinopeptide, and under its influence, will express selective pro-inflammatory molecules on the cell surface and will secrete pro-inflammatory mediators, such as cytokines and chemical attractants for immune cells.

[18] = RA line 4, fibrin clot 0.6 mg/ml or GPRP 1 mg/ml
[19] = RA line 9, fibrin clot 0.6 mg/ml or GPRP 1 mg/ml

Chain of fibrin polymerization (P02679 27-453): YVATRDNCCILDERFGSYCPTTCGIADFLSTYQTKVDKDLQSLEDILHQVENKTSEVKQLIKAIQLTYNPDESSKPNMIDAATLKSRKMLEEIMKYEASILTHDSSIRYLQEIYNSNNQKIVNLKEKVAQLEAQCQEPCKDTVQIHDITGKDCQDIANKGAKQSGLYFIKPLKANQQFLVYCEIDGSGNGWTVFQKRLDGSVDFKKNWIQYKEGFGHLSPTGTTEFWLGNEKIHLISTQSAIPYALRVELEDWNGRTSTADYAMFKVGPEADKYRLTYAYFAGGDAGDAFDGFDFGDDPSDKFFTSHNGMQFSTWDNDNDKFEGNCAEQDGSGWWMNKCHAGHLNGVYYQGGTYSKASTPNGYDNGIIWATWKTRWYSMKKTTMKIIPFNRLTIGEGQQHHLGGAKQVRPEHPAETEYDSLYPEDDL
Chain of fibrin polymerization (P02671 20-639 isoform P02671-2 partner limits assumed): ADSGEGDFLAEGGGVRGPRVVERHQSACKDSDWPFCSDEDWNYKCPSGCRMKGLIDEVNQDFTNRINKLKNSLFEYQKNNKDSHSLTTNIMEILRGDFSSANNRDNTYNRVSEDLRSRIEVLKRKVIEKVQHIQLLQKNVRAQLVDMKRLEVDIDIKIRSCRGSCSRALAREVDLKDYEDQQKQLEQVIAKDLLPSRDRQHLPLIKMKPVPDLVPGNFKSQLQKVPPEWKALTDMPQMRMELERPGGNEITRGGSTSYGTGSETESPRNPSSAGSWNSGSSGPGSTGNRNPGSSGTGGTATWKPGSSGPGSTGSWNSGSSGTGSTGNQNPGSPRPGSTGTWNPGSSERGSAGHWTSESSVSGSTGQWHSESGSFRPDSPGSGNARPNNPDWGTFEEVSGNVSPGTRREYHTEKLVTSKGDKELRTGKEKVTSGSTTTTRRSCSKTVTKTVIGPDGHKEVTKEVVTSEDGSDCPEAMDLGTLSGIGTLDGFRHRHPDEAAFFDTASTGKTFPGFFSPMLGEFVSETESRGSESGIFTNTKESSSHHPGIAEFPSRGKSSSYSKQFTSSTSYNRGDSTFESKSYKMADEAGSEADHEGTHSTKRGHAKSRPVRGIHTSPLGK
Chain of fibrin polymerization (P02675 45-491 partner limits assumed): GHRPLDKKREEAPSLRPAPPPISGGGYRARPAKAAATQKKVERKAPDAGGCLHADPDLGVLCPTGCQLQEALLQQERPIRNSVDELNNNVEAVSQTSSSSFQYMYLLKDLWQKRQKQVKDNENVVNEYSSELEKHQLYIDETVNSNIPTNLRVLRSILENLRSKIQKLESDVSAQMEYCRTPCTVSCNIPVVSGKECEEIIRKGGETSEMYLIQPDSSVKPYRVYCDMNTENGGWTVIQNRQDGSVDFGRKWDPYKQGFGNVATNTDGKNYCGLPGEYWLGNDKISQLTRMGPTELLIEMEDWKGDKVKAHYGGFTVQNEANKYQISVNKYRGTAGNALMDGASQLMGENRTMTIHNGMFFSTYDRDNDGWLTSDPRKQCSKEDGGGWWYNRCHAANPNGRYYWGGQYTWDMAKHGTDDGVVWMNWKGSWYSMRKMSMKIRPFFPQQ

Substance: Gly-Pro-Arg-Pro [GPRP]
- ICAM-1 % positive (RA synovial cell lines; [18]): 87.0%
- ICAM-1 MFC (RA synovial cell lines; [18]): 2.73
- ICAM-1 % positive (RA synovial cell lines; RA line 5, GPRP 1 mg/ml): 74.5%
- ICAM-1 MFC (RA synovial cell lines; RA line 5, GPRP 1 mg/ml): 2.00
- ICAM-1 % positive (RA synovial cell lines; RA line 6, GPRP 1 mg/ml): 95.0%
- ICAM-1 MFC (RA synovial cell lines; RA line 6, GPRP 1 mg/ml): 9.19
- ICAM-1 % positive (RA synovial cell lines; [19]): 80.1%
- ICAM-1 MFC (RA synovial cell lines; [19]): 3.62
- ICAM-1 % positive [1]: 86.7%
- ICAM-1 MFC [1]: 2.26
- ICAM-1 induction (RA synovial fibroblasts [2]; GPRP at 0.01 mg/ml): not to be significant
- ICAM-1 induction (RA synovial fibroblasts [2]; GPRP at 1.0, 0.5, and 0.1 mg/ml): significant induction
- ICAM-1 O.D. 492 (RA synovial fibroblasts [2]; RA line 1): 1.38 ± .16
- ICAM-1 O.D. 492 (RA synovial fibroblasts [2]; RA line 2): 0.98 ± .03
- ICAM-1 expression O.D. 492 (RA synovial fibroblasts [2]; RA line 4): 1.04 ± .02
- ICAM-1 expression O.D. 492 (RA synovial fibroblasts [2]; RA line 5): 1.10 ± .03
- ICAM-1 expression O.D. 492 (RA synovial fibroblasts [2]; RA line 9): 0.98 ± .15
- ICAM-1 OD 492 (RA synovial fibroblasts [2]; RA#11, GPRP 0.10 mg/ml overnight): .37 ± 0
- ICAM-1 OD 492 (RA synovial fibroblasts [2]; RA#11, GPRP 0.30 mg/ml overnight): .46 ± .05
- ICAM-1 OD 492 (RA synovial fibroblasts [2]; RA#11, GPRP 1.00 mg/ml overnight): .59 ± .05
- ICAM-1 OD 492 (RA synovial fibroblasts [2]; RA#11, GPRP .001 mg/ml overnight): .24 ± .05
- ICAM-1 OD 492 (RA synovial fibroblasts [2]; RA#11, GPRP .003 mg/ml overnight): .25 ± .03
- ICAM-1 OD 492 (RA synovial fibroblasts [2]; RA#11, GPRP .010 mg/ml overnight): .24 ± .05
- ICAM-1 OD 492 (RA synovial fibroblasts [2]; RA#11, GPRP .030 mg/ml overnight): .31 ± .02
- ICAM-1 OD 492 (RA synovial fibroblasts [2]; RA#12, GPRP 0.10 mg/ml overnight): 0.76 ± .03
- ICAM-1 OD 492 (RA synovial fibroblasts [2]; RA#12, GPRP 0.30 mg/ml overnight): 1.09 ± .06
- ICAM-1 OD 492 (RA synovial fibroblasts [2]; RA#12, GPRP 1.00 mg/ml overnight): 1.42 ± .08
- ICAM-1 OD 492 (RA synovial fibroblasts [2]; RA#12, GPRP .001 mg/ml overnight): 0.51 ± .01
- ICAM-1 OD 492 (RA synovial fibroblasts [2]; RA#12, GPRP .003 mg/ml overnight): 0.53 ± .01
- ICAM-1 OD 492 (RA synovial fibroblasts [2]; RA#12, GPRP .010 mg/ml overnight): 0.57 ± .02
- ICAM-1 OD 492 (RA synovial fibroblasts [2]; RA#12, GPRP .030 mg/ml overnight): 0.62 ± .03
- ICAM-1 expression (RA synovial fibroblasts [2]; more than seven different RA fibroblast lines): consistently increased expression of ICAM-1
- ICAM-1 OD 492 (foreskin fibroblasts [3]; FF-#1, GPRP 0.10 mg/ml overnight): 0.92 ± .02
- ICAM-1 OD 492 (foreskin fibroblasts [3]; FF-#1, GPRP 0.30 mg/ml overnight): 0.99 ± .01
- ICAM-1 OD 492 (foreskin fibroblasts [3]; FF-#1, GPRP 1.00 mg/ml overnight): 1.02 ± .01
- ICAM-1 OD 492 (foreskin fibroblasts [3]; FF-#1, GPRP .001 mg/ml overnight): 0.92 ± .01
- ICAM-1 OD 492 (foreskin fibroblasts [3]; FF-#1, GPRP .003 mg/ml overnight): 0.95 ± .06
- ICAM-1 OD 492 (foreskin fibroblasts [3]; FF-#1, GPRP .010 mg/ml overnight): 0.93 ± .03
- ICAM-1 OD 492 (foreskin fibroblasts [3]; FF-#1, GPRP .030 mg/ml overnight): 0.94 ± .05
- ICAM-1 OD 492 (foreskin fibroblasts [3]; FF-#2, GPRP 0.10 mg/ml overnight): .72 ± .02
- ICAM-1 OD 492 (foreskin fibroblasts [3]; FF-#2, GPRP 0.30 mg/ml overnight): .72 ± .03
- ICAM-1 OD 492 (foreskin fibroblasts [3]; FF-#2, GPRP 1.00 mg/ml overnight): .78 ± .04
- ICAM-1 OD 492 (foreskin fibroblasts [3]; FF-#2, GPRP .001 mg/ml overnight): .69 ± .02
- ICAM-1 OD 492 (foreskin fibroblasts [3]; FF-#2, GPRP .003 mg/ml overnight): .71 ± .04
- ICAM-1 OD 492 (foreskin fibroblasts [3]; FF-#2, GPRP .010 mg/ml overnight): .71 ± .02
- ICAM-1 OD 492 (foreskin fibroblasts [3]; FF-#2, GPRP .030 mg/ml overnight): .70 ± .02
- ICAM-1 expression O.D. 492 (foreskin fibroblasts [3]; Foreskin fibroblasts, overnight, fibrin clots 0.6 mg/ml, GPRP 1 mg/ml or interferon γ 200 U/ml, mean ± SD): 0.55 ± .05
- ICAM-1 O.D. 492 (foreskin fibroblasts [3]; Foreskin line, overnight, IL-1 0.5 ng/ml, GPRP or GPRP-amide 1 mg/ml, fibrinogen receptor peptide 0.1 mg/ml, FPA, FPB 10^−4 M): 0.79 ± .02
- ICAM-1 O.D. 492 [4]: 0.85 ± .08
- IL-6 (RA synovial fibroblasts [5]; RA #1): 2400 pg/mL
- IL-6 INCREASE over control (RA synovial fibroblasts [5]; RA #1): 1.50X
- IL-6 (RA synovial fibroblasts [5]; RA #11): 1700 pg/mL
- IL-6 INCREASE over control (RA synovial fibroblasts [5]; RA #11): 6.18X
- IL-6 (RA synovial fibroblasts [5]; RA #16): 11100 pg/mL
- IL-6 INCREASE over control (RA synovial fibroblasts [5]; RA #16): 3.70X
- IL-6 (RA synovial fibroblasts [5]; RA #18): 940 pg/mL
- IL-6 INCREASE over control (RA synovial fibroblasts [5]; RA #18): 1.90X
- IL-6 (foreskin fibroblasts [6]): 215 pg/mL
- Adherent T cell numbers ([7]; RA line 7, GPRP 0.1 mg/ml overnight): 184 ± 58
- Adherent T cell numbers ([7]; RA line 7, GPRP 1 mg/ml overnight): 153 ± 54
- Adherent T cell numbers ([7]; RA line 8, GPRP 0.1 mg/ml overnight): 99 ± 18
- Adherent T cell numbers ([7]; RA line 8, GPRP 1 mg/ml overnight): 97 ± 10
- Adherent T cell numbers ([8]; GPRP 0.1 mg/ml overnight): 92 ± 27
- Adherent T cell numbers ([8]; GPRP 1 mg/ml overnight): 113 ± 44
- Adherent T cell numbers ([9]; GPRP 0.1 mg/ml overnight): 51 ± 3
- Adherent T cell numbers ([9]; GPRP 1 mg/ml overnight): 54 ± 11
- Increase of IL-8 production (RA synovial fibroblasts [10]; RA Line 1, forty-eight hours): fifteen
- Increase of IL-8 production (RA synovial fibroblasts [10]; RA Line 1, twenty-four hours): 12.6 fold
- Increase of IL-8 production (RA synovial fibroblasts [10]; RA Line 2, forty-eight hours): ten
- Increase of IL-8 production (RA synovial fibroblasts [10]; RA Line 2, twenty-four hours): ten
- IL-8 (RA synovial fibroblasts [10]; RA line 1, 24 hr): 16,000 pg/ml
- IL-8 (RA synovial fibroblasts [10]; RA line 1, 48 hr): 17,500 pg/ml
- IL-8 (RA synovial fibroblasts [10]; RA line 4, 24 hr): 9,000 pg/ml
- IL-8 (RA synovial fibroblasts [10]; RA line 4, 48 hr): 6,800 pg/ml
- IL-8 (foreskin fibroblasts [11]; 24 hr): 1,840 pg/ml
- IL-8 (foreskin fibroblasts [11]; 48 hr): 1,200 pg/ml
- GRO-alpha Fold Increase (RA synovial fibroblasts [12]; RA fibroblasts, visual observation of developed ELISA plates): at least as much as was seen for IL-8
- GRO-alpha (RA synovial fibroblasts [12]; RA line 8, 1 mg/ml GPRP): 8500 pg/mL
- GRO-alpha Fold Increase (RA synovial fibroblasts [12]; RA line 8, 1 mg/ml GPRP, versus control): 21X
- GRO-alpha (foreskin fibroblasts [13]; Foreskin fibroblasts, 1 mg/ml GPRP): 470 pg/mL
- GRO-alpha Fold Increase (foreskin fibroblasts [13]; Foreskin fibroblasts, 1 mg/ml GPRP, versus control): 1.2X
- Increase in GRO-alpha secretion (foreskin fibroblasts [13]; forty-eight hours): 1.2 fold
- Increase in GRO-alpha secretion (foreskin fibroblasts [13]; twenty-four hours): 1.2 fold
- Competition with biotin-labeled SAC for binding to human synovial fibroblasts (Synovial cells [14]; unlabeled competitor): can compete
- Mean (fluorescence of bound SAC[KBtn]) (Synovial cells [14]; unlabeled competitor 2.5 mg for 3 hours, then labeled SAC[KBtn] for 1 hour, Avidin-FITC): 33.58
- Inhibition of fibrin polymerization (fibrin polymerization): good inhibitor of fibrin polymerization
- Lines tested that upregulated V-CAM-1 expression [15]: about 50 % of the lines tested
- IL-6 gene expression (synovial cells [16]): significantly more IL-6 gene expression than controls
- Responsiveness of lung fibroblastic cells (surface pro-inflammatory molecules, secreted mediators) [17]: responsive
